The target of one experiment is Factor XIa (Homo sapiens, UniProt P03951). The experiment in a line: Factor XIa inhibition assay (FLINT) utilizing a fluorophore-quencher pair peptide substrate 5Fam-[…]-K5Tamra. It is filed as biochemical. The following applies: kinetic (KIN) reads, read-out: FXIa KIN Inh IC50. The method in brief:
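FXIa was preincubated with compound for 30 min at room temperature in Tris pH 7.5 buffer containing CaCl2, BSA and CHAPS, then reacted with 15 μM quenched 5Fam/Tamra peptide substrate. Fluorescence (485/520 nm) was read kinetically every 5 min for 30 min.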

The target in another experiment is human plasma kallikrein (Homo sapiens, UniProt P03952). The experiment in a line: Kallikrein inhibition assay (FLINT) utilizing a quenched AMC peptide substrate Z-Gly-Pro-Arg-AMC. The experiment is classed as biochemical. The following applies: kinetic (KIN) reads, read-out: Kallikrein KIN Inh IC50. The method in brief:
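Human plasma kallikrein (2 nM final) pre-incubated 30 min with compound (11-point 3-fold series, top 1 μM, 2% DMSO), then 50 μM Z-Gly-Pro-Arg-AMC added. Buffer 50 mM Tris pH 7.5, 100 mM NaCl, 5 mM CaCl2, BSA, CHAPS. AMC fluorescence (340/440 nm) read kinetically over 30 min at room temperature, IC50 by 4-parameter logistic fit.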

Where two headings read alike, the source gives them in different places.

human plasma kallikrein, sequence (P03952 391-638 limits assumed): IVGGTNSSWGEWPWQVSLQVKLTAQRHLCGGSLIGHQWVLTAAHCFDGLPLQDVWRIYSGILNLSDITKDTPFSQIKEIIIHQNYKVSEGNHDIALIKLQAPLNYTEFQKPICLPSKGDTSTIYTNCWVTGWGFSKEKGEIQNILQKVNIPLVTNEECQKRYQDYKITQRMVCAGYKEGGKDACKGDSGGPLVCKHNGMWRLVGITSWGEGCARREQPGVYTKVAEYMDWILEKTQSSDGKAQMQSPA
human plasma kallikrein, sequence (P03952 20-390 partner limits assumed): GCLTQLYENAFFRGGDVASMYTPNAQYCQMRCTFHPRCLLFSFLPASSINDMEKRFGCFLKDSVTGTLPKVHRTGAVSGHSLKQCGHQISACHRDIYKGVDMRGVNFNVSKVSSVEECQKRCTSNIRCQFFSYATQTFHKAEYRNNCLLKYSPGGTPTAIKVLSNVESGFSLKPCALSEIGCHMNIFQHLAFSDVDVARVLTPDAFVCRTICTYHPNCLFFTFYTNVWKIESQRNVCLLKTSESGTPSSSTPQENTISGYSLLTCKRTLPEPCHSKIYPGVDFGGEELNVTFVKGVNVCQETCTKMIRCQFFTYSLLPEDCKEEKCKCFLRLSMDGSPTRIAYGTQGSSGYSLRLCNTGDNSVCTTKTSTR
Factor XIa, sequence (P03951 388-625 limits assumed): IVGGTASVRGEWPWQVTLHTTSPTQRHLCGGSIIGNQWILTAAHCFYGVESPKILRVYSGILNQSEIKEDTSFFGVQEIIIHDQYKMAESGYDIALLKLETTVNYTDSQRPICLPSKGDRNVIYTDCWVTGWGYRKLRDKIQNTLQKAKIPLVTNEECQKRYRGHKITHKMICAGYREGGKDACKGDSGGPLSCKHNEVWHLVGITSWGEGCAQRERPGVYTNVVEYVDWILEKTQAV
Factor XIa, sequence (P03951 19-387 partner limits assumed): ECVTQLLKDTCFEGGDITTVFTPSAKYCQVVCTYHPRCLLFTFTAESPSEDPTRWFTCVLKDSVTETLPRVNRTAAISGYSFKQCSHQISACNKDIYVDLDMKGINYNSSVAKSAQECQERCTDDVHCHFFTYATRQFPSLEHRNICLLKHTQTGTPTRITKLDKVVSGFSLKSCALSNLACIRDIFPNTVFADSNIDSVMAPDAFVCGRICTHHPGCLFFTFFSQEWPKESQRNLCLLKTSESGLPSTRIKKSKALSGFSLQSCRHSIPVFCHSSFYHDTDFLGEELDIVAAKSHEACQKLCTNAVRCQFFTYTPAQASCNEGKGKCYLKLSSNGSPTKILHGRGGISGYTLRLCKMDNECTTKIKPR

As to `C[C@H]1C[C@@H](c2ncc(-c3ccnc(N)n3)[nH]2)n2c1cc(-c1c(-n3cnnn3)ccc(Cl)c1F)cc2=O` [Example 20, (1S,3S)-3-(5-(2-Aminopyrimidin-4-yl)-1H-imidazol-2-yl)-7-(3-chloro-2-fluoro-6-(1H-tetrazol-1-yl)phenyl)-1-methyl-2,3-dihydroindolizin-5(1H)-one], the IC50 at Factor XIa (values in nM) is 19.7 nM; at human plasma kallikrein (values in nM), 295 nM.

`C[C@@H]1C[C@H](c2ncc(-c3cnc(N)nc3)[nH]2)n2c1nc(-c1c(-n3cnnn3)ccc(Cl)c1F)cc2=O` (stereo in doubt) [Example 114, (6*R,8*R)-6-(5-(2-Aminopyrimidin-5-yl)-1H-imidazol-2-yl)-2-(3-chloro-2-fluoro-6-(1H-tetrazol-1-yl)phenyl)-8-methyl-7,8-dihydropyrrolo[1,2-a]pyrimidin-4(6H)-one]: the values for the IC50 at Factor XIa (values in nM) and at human plasma kallikrein (values in nM) were 111 nM and 284 nM, respectively.

With `COc1nccc(-c2cnc([C@H]3C[C@H](C)c4nc(-c5c(-n6cnnn6)ccc(Cl)c5F)cc(=O)n43)[nH]2)n1` (relative stereo) [Example 104, (6*R,8*S)-2-(3-Chloro-2-fluoro-6-(1H-tetrazol-1-yl)phenyl)-6-(5-(2-methoxypyrimidin-4-yl)-1H-imidazol-2-yl)-8-methyl-7,8-dihydropyrrolo[1,2-a]pyrimidin-4(6H)-one], the results for the IC50 at Factor XIa (values in nM) and at human plasma kallikrein (values in nM) were 113 nM and 115 nM, respectively.

As for `C[C@H]1C[C@@H](c2ncc(-c3ccc(NS(C)(=O)=O)cc3)[nH]2)n2c1cc(-c1c(-n3cnnn3)ccc(Cl)c1F)cc2=O` [Example 11, N-(4-(2-((1S,3S)-7-(3-chloro-2-fluoro-6-(1H-tetrazol-1-yl)phenyl)-1-methyl-5-oxo-1,2,3,5-tetrahydroindolizin-3-yl)-1H-imidazol-5-yl)phenyl)methanesulfonamide], the IC50 was determined as 2.2 nM at Factor XIa (values in nM) and 11.4 nM on human plasma kallikrein (values in nM).

Take `O=c1cc(-c2c(-n3cnnn3)ccc(Cl)c2F)nc2n1C(c1nc(F)c(-c3ccnc(CO)c3F)[nH]1)CC21CC1` (racemic) [Example 69, 2′-(3-Chloro-2-fluoro-6-(1H-tetrazol-1-yl)phenyl)-6′-(4-fluoro-5-(3-fluoro-2-(hydroxymethyl)pyridin-4-yl)-1H-imidazol-2-yl)-6′,7′-dihydro-4′H-spiro[cyclopropane-1,8′-pyrrolo[1,2-a]pyrimidin]-4′-one]: the IC50 worked out at 19.4 nM at Factor XIa (values in nM) and 118 nM on human plasma kallikrein (values in nM).

As for `Cc1nc(N)cnc1-c1cnc([C@H]2CC(C)c3nc(-c4c(-n5cnnn5)ccc(Cl)c4F)cc(=O)n32)[nH]1` (stereo partly drawn) [Example 96, (6R)-6-(5-(5-Amino-3-methylpyrazin-2-yl)-1H-imidazol-2-yl)-2-(3-chloro-2-fluoro-6-(1H-tetrazol-1-yl)phenyl)-8-methyl-7,8-dihydropyrrolo[1,2-a]pyrimidin-4(6H)-one], the IC50 at Factor XIa (values in nM) is greater than 100 nM; on human plasma kallikrein (unit μM), greater than 1000 nM.

As for `C[C@H]1C[C@H](c2ncc(-c3ncc(N)nc3C(F)F)[nH]2)n2c1nc(-c1c(-n3cnnn3)ccc(Cl)c1F)cc2=O` (relative stereo) [Example 85, (6*R,8*S)-6-(5-(5-Amino-3-(difluoromethyl)pyrazin-2-yl)-1H-imidazol-2-yl)-2-(3-chloro-2-fluoro-6-(1H-tetrazol-1-yl)phenyl)-8-methyl-7,8-dihydropyrrolo[1,2-a]pyrimidin-4(6H)-one], the half-maximal inhibitory concentration (IC50) on Factor XIa (values in nM) is 52 nM; on human plasma kallikrein (unit μM) it was greater than 1000 nM.

Regarding `C[C@H]1C[C@@H](c2ncc(-c3ccc(N)nc3Cl)[nH]2)n2c1nc(-c1c(-n3cnnn3)ccc(Cl)c1F)cc2=O` (single isomer, unassigned) [Example 140], the IC50 on Factor XIa (values in nM) is roughly 575 nM; on human plasma kallikrein (unit μM), 9100 nM.

Regarding `CCO[C@@H]1C[C@@H](c2ncc(-c3ccc(N)nc3F)[nH]2)n2c1cc(-c1c(-n3cnnn3)ccc(Cl)c1F)cc2=O` [Example 139, (1R,3S)-3-(5-(6-Amino-2-fluoropyridin-3-yl)-1H-imidazol-2-yl)-7-(3-chloro-2-fluoro-6-(1H-tetrazol-1-yl)phenyl)-1-ethoxy-2,3-dihydroindolizin-5(1H)-one], the IC50 at Factor XIa (values in nM) turned out to be 0.3 nM; on human plasma kallikrein (values in nM), 18 nM.

Consider `CC1CC(c2ncc(-c3ccnc(CO)c3F)[nH]2)n2c1nc(-c1c(-n3cnnn3)ccc(Cl)c1F)cc2=O` (single isomer, unassigned) [Example 78, (6R*)-2-(3-Chloro-2-fluoro-6-(1H-tetrazol-1-yl)phenyl)-6-(5-(3-fluoro-2-(hydroxymethyl)pyridin-4-yl)-1H-imidazol-2-yl)-8-methyl-7,8-dihydropyrrolo[1,2-a]pyrimidin-4(6H)-one], for which the half-inhibitory concentration (IC50) on Factor XIa (values in nM) is greater than 100 nM; at human plasma kallikrein (values in nM), 463 nM.

For the compound `C[C@@H]1C[C@H](c2ncc(-c3ccc4c(c3)CC(=O)N4)[nH]2)n2c1nc(-c1c(-n3cnnn3)ccc(Cl)c1F)cc2=O` (stereo in doubt) [Example 112, (6*R,8*R)-2-(3-Chloro-2-fluoro-6-(1H-tetrazol-1-yl)phenyl)-8-methyl-6-(5-(2-oxoindolin-5-yl)-1H-imidazol-2-yl)-7,8-dihydropyrrolo[1,2-a]pyrimidin-4(6H)-one], the IC50 at Factor XIa (values in nM) came out at 1.6 nM; on human plasma kallikrein (values in nM), 7.8 nM.

As to `C[C@@H]1C[C@H](c2ncc(-c3ccnn3C)[nH]2)n2c1nc(-c1c(-n3cnnn3)ccc(Cl)c1F)cc2=O` (stereo in doubt) [Example 143, (6R*,8R*)-2-(3-Chloro-2-fluoro-6-(1H-tetrazol-1-yl)phenyl)-8-methyl-6-(5-(1-methyl-1H-pyrazol-5-yl)-1H-imidazol-2-yl)-7,8-dihydropyrrolo[1,2-a]pyrimidin-4(6H)-one], the IC50 at Factor XIa (unit μM) and at human plasma kallikrein (unit μM) was greater than 10000 nM in each case.

Take `Nc1ccc(-c2cnc([C@@H]3CC4(CC4)c4cc(-c5cc(Cl)ccc5-n5cnnn5)cc(=O)n43)[nH]2)c(F)n1` (single isomer, unassigned) [Example 4]: the values for the IC50 on Factor XIa (values in nM) and at human plasma kallikrein (unit μM) were greater than 100 nM and greater than 1000 nM, respectively.

For the compound `CC1C[C@@H](c2nc(-c3cnc(N)cn3)c[nH]2)n2c1nc(-c1c(-n3cc(C(F)(F)F)nn3)ccc(Cl)c1F)cc2=O` (stereo partly drawn) [Example 80, (6S)-6-(4-(5-aminopyrazin-2-yl)-1H-imidazol-2-yl)-2-(3-chloro-2-fluoro-6-(4-(trifluoromethyl)-1H-1,2,3-triazol-1-yl)phenyl)-8-methyl-7,8-dihydropyrrolo[1,2-a]pyrimidin-4(6H)-one], the values for the IC50 on Factor XIa (values in nM) and at human plasma kallikrein (values in nM) were 4.4 nM and roughly 236 nM, respectively.

Take `CC(O)c1nccc(-c2cnc([C@H]3CC4(CC4)c4cc(-c5c(-n6cnnn6)ccc(Cl)c5F)cc(=O)n43)[nH]2)c1F` (single isomer, unassigned) [Example 6, (3′R)-7′-(3-Chloro-2-fluoro-6-(1H-tetrazol-1-yl)phenyl)-3′-(5-(3-fluoro-2-(1-hydroxyethyl)pyridin-4-yl)-1H-imidazol-2-yl)-2′,3′-dihydro-5′H-spiro[cyclopropane-1,1′-indolizin]-5′-one]: the IC50 came out at 17 nM on Factor XIa (values in nM) and 72.8 nM at human plasma kallikrein (values in nM).

As for `C[C@@H]1C[C@H](c2ncc(-c3ccnc(F)c3)[nH]2)n2c1cc(-c1c(-n3cnnn3)ccc(Cl)c1F)cc2=O` (stereo in doubt) [Example 43, (1*R,3*R)-7-(3-Chloro-2-fluoro-6-(1H-tetrazol-1-yl)phenyl)-3-(5-(2-fluoropyridin-4-yl)-1H-imidazol-2-yl)-1-methyl-2,3-dihydroindolizin-5(1H)-one], the IC50 was determined as 12.4 nM on Factor XIa (values in nM) and 108 nM on human plasma kallikrein (values in nM).

By IC50 is commonly meant the point on the concentration scale where inhibition reaches its midpoint.

(Values after patent US20230097157A1, “Bicyclic Pyridin-2-one and pyrimidin-4-one Derivatives Useful As a Factor XIa Inhibitors” (Janssen Pharmaceutica NV, priority 2021, published 2023).)
